Measurements: patent publication US20060235062A1, “Novel heterocyclic analogs of diphenylethylene compounds” (THERACOS, INC., priority 2002, published 2006)
Read-outs that look alike come from different tables or passages of the source.

Tests used:
SJL-/J mice = experiment: Experimental allergic encephalomyelitis (EAE) in mice; type: in vivo; settings: 200 μg once daily subcutaneous, FIG. 14
Human PPAR-γ2 = molecular target: T1, Human PPAR-γ2 (Homo sapiens, UniProt P37231); experiment: PPAR-gamma mediated transactivation of PPRE-luciferase reporter; type: cell-based
T1 construct: inserting the PPARγ2 cDNA coding region into pcDNA3.1+ vector; expressed in transfected cells; host or cells: HEK293 cells (ATCC)
T1 sequence (P37231 1-505): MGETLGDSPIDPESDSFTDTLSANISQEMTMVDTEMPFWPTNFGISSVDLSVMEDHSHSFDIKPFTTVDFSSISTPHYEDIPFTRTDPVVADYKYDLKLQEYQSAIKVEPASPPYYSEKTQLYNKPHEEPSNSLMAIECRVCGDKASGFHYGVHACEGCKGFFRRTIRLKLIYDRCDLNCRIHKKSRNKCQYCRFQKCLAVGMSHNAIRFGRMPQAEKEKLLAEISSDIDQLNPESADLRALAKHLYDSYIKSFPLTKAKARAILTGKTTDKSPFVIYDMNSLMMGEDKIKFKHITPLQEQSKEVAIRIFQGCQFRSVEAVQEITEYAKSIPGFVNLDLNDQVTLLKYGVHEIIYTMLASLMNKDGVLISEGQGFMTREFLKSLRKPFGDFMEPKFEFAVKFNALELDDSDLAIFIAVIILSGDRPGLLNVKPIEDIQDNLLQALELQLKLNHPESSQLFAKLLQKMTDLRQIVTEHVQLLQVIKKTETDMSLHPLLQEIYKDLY
Protocol: Human PPAR-γ2 expression vector was constructed by inserting PPAR-γ2 encoding region into pcDNA3.1+ vector (Invitrogen, Carlsbad, Calif.). Luciferase reporter vector was constructed by ligating PPRE response element adjacent to the upstream of Firefly luciferase coding region. Control vector, pRL-SV40 expressing Renilla luciferase was purchased from Promega (Madison, Wis.).
About 2.7×10^4 293 cells (ATCC, Manassas, Va.) were plated into a 35 mm culture well and maintained in Eagle's Minimal Essential Medium (ATCC, Manassas, Va.) supplemented with 10% heat inactivated horse serum (ATCC, Manassas, Va.) for 24 hours. Expression, reporter and control vectors (2.5 ng control and 100 ng others per culture well) were transfected by LI[…]™ Reagent (Invitrogen, Carlsbad, Calif.). Transfection reagent and DNA were prepared according to manufacture's recommendations and incubated with cells for 3 hours followed by adding equal volume EMEM supplemented with 20% horse serum. Twenty-four hours after transfection, cells were treated with vehicle or compounds at indicated final concentration for 24 hours. Final concentration of vehicle was 0.001% DMSO (Sigma, ST Louis, Mo.) in medium. Vehicle and compound treatment were all conducted in triplicate. Each culture well was then assayed for a response characterized by increased Firefly luciferase activity normalized with Renilla luciferase activity.
Assays for Firefly luciferase activity and Renilla luciferase activity followed the standard protocol of Dual-luciferase Reporter® Assay System (Promega, Madison, Wis.). Briefly, 400 μl Passive Lysis Buffer was added into each culture well and all wells were placed on a shaker for 15 minutes. Five μl cell lysate of each well was added to a reaction tube. Luciferase reagent II and Stop & Glo® were injected into the reaction tube sequentially by Sirius Luminometer (Berthold Detection Systems, Pforzheim, Germany). Final reporter activity was calculated as the ratio of Firefly luciferase activity over by Renilla luciferase activity.
Human PPARγ2 expression vector was constructed by inserting the PPARγ2 cDNA coding region into pcDNA3.1+ vector (Invitrogen, Carlsbad, Calif.). The PPRE-luciferase reporter gene was the kind gift of Dr. Kenneth Feingold. The control vector, pRL-SV40 containing the Renilla luciferase cDNA was purchased from Promega (Madison, Wis.). About 2.7×10^4 HEK293 human embryonal kidney cells (ATCC) were plated into a 35-mm tissue culture dish and maintained in Eagle Modified Essential Medium (EMEM, ATCC) containing 10% heat-inactivated horse serum for 24 h. Expression, reporter (100 ng/dish) and control (2.5 ng/dish) vectors were transfected using LI[…]™ Reagent (GibcoBRL) according to manufacturer's recommendation. At 24 h after transfection, cells were treated with vehicle (0.001% DMSO in medium) or compounds at the indicated concentration and incubated for 24 h. Each treatment was conducted in triplicate. Each culture dish was assayed for firefly luciferase activity normalized by Renilla luciferase activity to account for differences in transfection efficiency. Luciferase activity was measured using the Dual-luciferase Reporter® Assay System (Promega) and a Sirius luminometer (Berthold Detection System, Pforzheim, Germany).

ob/ob mice = experiment: Liver enzymes AST/GOT and ALT/GPT in sera of ob/ob mice; type: in vivo; settings: 21 days, orally 50 mg/kg, vs untreated or troglitazone-treated mice
IkappaB = experiment: LPS-stimulated phosphorylation of IkappaB in RAW 264.7 cells; type: cell-based; settings: RAW 264.7 cells, 3, 10 or 30, LPS plus IFN-gamma, anti-phospho-IkappaB blot
ZDF rats = experiment: Antihyperglycemic activity in Zucker diabetic fatty rats; type: in vivo
NF-kB p65 = NF-kB p65 activation in LPS-stimulated RAW cells (ELISA); type: cell-based; settings: 10 μM, 1 μg/ml LPS 15 min, FIG. 15
TNF-alpha = experiment: LPS-induced TNF-alpha production in RAW cells (ELISA); type: cell-based; settings: RAW cells, 0.1, 1, 10, 50 or 100 pM, 1 hour preincubation, LPS 6 hours, FIG. 9
HepG2 cells = experiment: Glycogen synthesis in HepG2 cells; type: cell-based; settings: HepG2, absence of insulin
IL-1-beta = experiment: LPS-induced IL-1-beta production in RAW cells (ELISA); type: cell-based; settings: RAW cells, 0.1, 1, 10, 50 or 100 pM, FIG. 11
IL-6 = experiment: LPS-induced IL-6 production in RAW cells (ELISA); type: cell-based; settings: RAW cells, 0.1, 1, 10, 50 or 100 pM, FIG. 10

SMILES: COC(=O)C(=Cc1cc(OC)cc(OC)c1)c1ccc(Oc2ccc(CC3SC(=O)NC3=O)cc2)cc1 (centres unmarked) [Compound 11, 3-(3,5-Dimethoxyphenyl)-2-{4-[4-(2,4-dioxothiazolidin-5-ylmethyl)-phenoxy]-phenyl}-acrylic acid methyl ester]
- amelioration of EAE (clinical score) (SJL-/J mice): highly effective
- transactivation potency less than that of rosiglitazone (Human PPAR-γ2): ≤ 30 fold
- EC50 (Human PPAR-γ2; HEK293 cells, human PPAR-gamma2, ± SE, n=5, FIG. 24, read-out: EC50 for transactivation of PPRE-Luc reporter): 284 ± 36 nM
- EC50 (Human PPAR-γ2; cells transfected with human PPAR-gamma2, 24 hours, non-linear regression, read-out: EC50, induction of PPAR-γ mediated luciferase activity): 280 nM
- PPAR-gamma transactivation potency relative to a comparator, in words (Human PPAR-γ2; in vitro transactivation assay): approximately one-thirtieth the activity of rosiglitazone
- AST level (ob/ob mice; FIG. 7A): not elevated
- ALT level (ob/ob mice; FIG. 7B): did not elevate
- inhibition of the phosphorylation of IkappaB (IkappaB): dose-dependent inhibition
- glucose levels (ZDF rats): normalizes glucose levels
- more weight gained than control animals (ZDF rats; 50 mg/kg oral once daily, 8 to 9 days): 13%
- decrease in blood glucose levels (ZDF rats; 50 mg/kg oral once daily, 8 to 9 days, FIG. 21): 50 % vs baseline
- inhibition of the activation of NF-kB (p65) (NF-kB p65): inhibited
- blood glucose level (db/db mice; db/db male mice, oral 50 mg/kg, 15 days, FIG. 1A): substantial reduction
- decrease in blood glucose levels (db/db mice; db/db mice, 50 mg/kg oral once daily, 8 to 9 days, FIG. 21): 32 % vs. baseline
- blood glucose lowering effect (db/db mice; db/db mice, 50 mg/kg/day orally, 14 days, FIG. 16A): dramatic, comparable blood glucose lowering effects
- drop in triglyceride levels (db/db mice; db/db mice, after 15 days of treatment, FIG. 5A): 24%
- drop in FFA levels (db/db mice; db/db mice, after 15 days of treatment, FIG. 5B): 34%
- drop in the GHb level (db/db mice; db/db mice, after 15 days of treatment, FIG. 5C): 0.7%
- increase in the serum leptin level compared to the control group (db/db mice; db/db mice, after 15 days of treatment, FIG. 5D): 23 °/a
- glucose lowering effect, maximal at 24 hrs (db/db mice; db/db mice, single oral dose 50 mg/kg, at 24 hrs): 23 % of 0 min
- duration of effect on blood glucose (db/db mice; db/db mice, single oral dose, FIG. 4): ≥ 24 h
- inhibition of LPS-induced TNF-alpha production (TNF-alpha): better inhibitor of TNF-alpha than rosiglitazone
- 14C-glucose incorporated into glycogen, dose response (HepG2 cells; FIG. 25A): dose-dependent increase
- maximal increase in glycogen synthesis over baseline (HepG2 cells; at 48 to 72 h, FIG. 25B): 3.1 fold
- inhibition of LPS-induced IL-1-beta production (IL-1-beta): inhibited IL-1-beta better than rosiglitazone
- inhibition of LPS-induced IL-6 production (IL-6): better inhibitor of IL-6 than rosiglitazone
